According to PubChem BioAssay AID2060882 (Molecular Pharmacology Branch, DTP, NCI, 2025):

Tested on: 898857-211-R-J1-PDC complex spheroids, growth % test/control
Assay: Anticancer human tumor 898857-211-R-J1-PDC patient-derived melanoma cell line growth inhibition [RAS]
Settings: for IC50: curve of first compound; for viability, T/C: stronger effect = lower value; active means viability on the fitted dose curve at most 10% of control; inactive means the rest
Procedure, shortened: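 Multi-cell-type spheroids: tumor cells plus HUVEC endothelial cells and mesenchymal stem cells. RAS-pathway inhibitors were combined with targeted agents, each dosed in half-log steps down from clinical Cmax, or from 10 microM when Cmax was unknown.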
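Further: spheroids exposed to compound for seven days before readout.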
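Wherever viability, T/C is given: 100% = DMSO vehicle control wells.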

NC1c2ccccc2OC12CCN(c1cnc3c(N4CCCc5ncccc54)n[nH]c3n1)CC2 (configuration not stated) + CCn1c(-c2cc(N3CCN(C)CC3)cnc2C(C)OC)c2c3cc(ccc31)-c1csc(n1)CC(NC(=O)C1CC1C)C(=O)N1CCCC(N1)C(=O)OCC(C)(C)C2
> 10 µM: IC50 (second compound 0.000949 µM) | IC50 (second compound 0.003 µM) | IC50 (second compound 0.00949 µM) | IC50 (second compound 0.03 µM)
8.35 µM: IC50 (second compound 0.0949 µM)
inactive: viability, T/C (second compound 0.000949 µM, first compound 0.0316 µM) 101% | viability, T/C (second compound 0.000949 µM, first compound 0.1 µM) 87.5% | viability, T/C (second compound 0.000949 µM, first compound 0.316 µM) 91.5% | viability, T/C (second compound 0.000949 µM, first compound 1 µM) 81.9% | viability, T/C (second compound 0.000949 µM, first compound 3.16 µM) 81.4% | viability, T/C (second compound 0.000949 µM, first compound 10 µM) 51% | viability, T/C (second compound 0.003 µM, first compound 0.0316 µM) 103% | viability, T/C (second compound 0.003 µM, first compound 0.1 µM) 87.9% | viability, T/C (second compound 0.003 µM, first compound 0.316 µM) 101% | viability, T/C (second compound 0.003 µM, first compound 1 µM) 85.7% | viability, T/C (second compound 0.003 µM, first compound 3.16 µM) 81.3% | viability, T/C (second compound 0.003 µM, first compound 10 µM) 55.5% | viability, T/C (second compound 0.00949 µM, first compound 0.0316 µM) 87.7% | viability, T/C (second compound 0.00949 µM, first compound 0.1 µM) 97.7% | viability, T/C (second compound 0.00949 µM, first compound 0.316 µM) 92.1% | viability, T/C (second compound 0.00949 µM, first compound 1 µM) 102% | viability, T/C (second compound 0.00949 µM, first compound 3.16 µM) 74.3% | viability, T/C (second compound 0.00949 µM, first compound 10 µM) 56.7% | viability, T/C (second compound 0.03 µM, first compound 0.0316 µM) 91.5% | viability, T/C (second compound 0.03 µM, first compound 0.1 µM) 87.8% | viability, T/C (second compound 0.03 µM, first compound 0.316 µM) 93.8% | viability, T/C (second compound 0.03 µM, first compound 1 µM) 73.5% | viability, T/C (second compound 0.03 µM, first compound 3.16 µM) 81.9% | viability, T/C (second compound 0.03 µM, first compound 10 µM) 50% | viability, T/C (second compound 0.0949 µM, first compound 0.0316 µM) 113% | viability, T/C (second compound 0.0949 µM, first compound 0.1 µM) 99.8% | viability, T/C (second compound 0.0949 µM, first compound 0.316 µM) 102% | viability, T/C (second compound 0.0949 µM, first compound 1 µM) 88.5% | viability, T/C (second compound 0.0949 µM, first compound 3.16 µM) 83.9% | viability, T/C (second compound 0.0949 µM, first compound 10 µM) 43% | viability, T/C (second compound 0.3 µM, first compound 0.0316 µM) 112% | viability, T/C (second compound 0.3 µM, first compound 0.1 µM) 92.6% | viability, T/C (second compound 0.3 µM, first compound 0.316 µM) 81.3% | viability, T/C (second compound 0.3 µM, first compound 1 µM) 98% | viability, T/C (second compound 0.3 µM, first compound 3.16 µM) 78.7% | viability, T/C (second compound 0.3 µM, first compound 10 µM) 43.5%
8.21 µM: IC50 (second compound 0.3 µM)
